Experimental data taken from patent US20070128217A1 (priority 2003, published 2007).

Assays:
[1] = test system: antibodies in sera from SARS patients (sera 1a, 1b, 2, 6, 37, 62, London, SARS-yellow, SARS-green); assay type: binding, human; parameters: Binding of serum 6 to linear peptides of protein X1 of SARS-CoV Urbani / Binding of serum 37 to linear peptides of protein X1 of SARS-CoV Urbani / Binding of serum 6 to looped/cyclic peptide (PEPSCAN-ELISA) / Binding of serum 37 to looped/cyclic peptide (PEPSCAN-ELISA) / Binding of serum 37 to looped/cyclic peptides of protein X1 of SARS-CoV Urbani / Binding of serum 6 to linear peptides of protein X2 / Binding of serum 37 to linear peptides of protein X2 / Binding of serum 37 to looped/cyclic peptides of protein X2 of SARS-CoV Urbani / Binding of serum 6 to linear peptides of protein M of SARS-CoV Urbani / Binding of serum 37 to linear peptides of protein M of SARS-CoV Urbani / Binding of serum 6 to looped/cyclic peptides of protein M of SARS-CoV Urbani / Binding of serum 37 to looped/cyclic peptides of protein M of SARS-CoV Urbani / Binding of serum 6 to linear peptides of protein X3 of SARS-CoV Urbani / Binding of serum 37 to linear peptides of protein X3 of SARS-CoV Urbani / Binding of serum 37 to looped/cyclic peptides of protein X3 of SARS-CoV Urbani / Binding of serum 6 to linear peptides of protein X4 of SARS-CoV Urbani / Binding of serum 37 to linear peptides of protein X4 of SARS-CoV Urbani / Binding of serum 37 to looped/cyclic peptides of protein X4 of SARS-CoV Urbani / Binding of serum 6 to linear peptides of protein X5 of SARS-CoV Urbani / Binding of serum 37 to linear peptides of protein X5 of SARS-CoV Urbani / Binding of serum 37 to looped/cyclic peptides of protein X5 of SARS-CoV Urbani / Binding of serum 6 to linear peptides of protein N of SARS-CoV Urbani / Binding of serum 37 to linear peptides of protein N of SARS-CoV Urbani / Binding of serum 6 to linear peptide (PEPSCAN-ELISA) / Binding of serum 1a to looped/cyclic peptides of protein N of SARS-CoV Urbani / Binding of serum 1b to looped/cyclic peptides of protein N of SARS-CoV Urbani / Binding of serum 2 to looped/cyclic peptides of protein N of SARS-CoV Urbani / Binding of serum 6 to looped/cyclic peptides of protein N of SARS-CoV Urbani / Binding of serum 37 to looped/cyclic peptides of protein N of SARS-CoV Urbani / Binding of serum 62 to looped/cyclic peptides of protein N of SARS-CoV Urbani / Binding of serum London to looped/cyclic peptides of protein N of SARS-CoV Urbani / Binding of serum SARS-green to looped/cyclic peptides of protein N of SARS-CoV Urbani: unit not given here
[2] = test system: control sera (pooled serum of ten healthy LUMC hospital workers; commercial negative donor pooled serum from the Dutch bloodbank); assay type: binding, human; parameters: Binding of Control serum LUMC to linear peptides / Binding of Control serum Blood-bank to linear peptides / Binding of Control serum LUMC to looped peptides / Binding of Control Serum Blood-Bank to Looped peptides / Binding of Control serum LUMC to linear peptides of the protein M of SARS-CoV Urbani / Binding of Control serum Blood-bank to linear peptides of the protein M of SARS-CoV Urbani / Binding of Control serum LUMC to looped peptides of the protein M of SARS-CoV Urbani / Binding of Control Serum Blood-Bank to Looped peptides of the protein M of SARS-CoV Urbani: unit not given here
[3] = test system: rabbit serum obtained by immunizing a rabbit with the SARS-CoV strain Frankfurt 1; assay type: binding; parameters: Binding of a rabbit serum to linear peptides / Binding of a rabbit serum to looped peptides / Rabbit serum linear peptides / Rabbit serum looped peptides / Binding of a rabbit serum to linear peptides of protein N of SARS-CoV Urbani (Rabbit serum linear peptides) / Binding of a rabbit serum to looped/cyclic peptides of protein N of SARS-CoV Urbani (Rabbit serum looped peptides): unit not given here

## LFLTLIVFTSCELYH
[1]
  Binding of serum 1a to linear peptides of protein X4 of SARS-CoV Urbani: 0.7
  Binding of serum 1a to looped/cyclic peptides of protein X4 of SARS-CoV Urbani: 0.9
  Binding of serum 1b to linear peptides of protein X4 of SARS-CoV Urbani: 0.7
  Binding of serum 1b to looped/cyclic peptides of protein X4 of SARS-CoV Urbani: 0.8
  Binding of serum 2 to linear peptides of protein X4 of SARS-CoV Urbani: 0.5
  Binding of serum 2 to looped/cyclic peptides of protein X4 of SARS-CoV Urbani: 0.8
  Binding of serum 6 to linear peptides of protein X4 of SARS-CoV Urbani: 0.5
  Binding of serum 6 to looped/cyclic peptides of protein X4 of SARS-CoV Urbani: 0.7
  Binding of serum 37 to linear peptides of protein X4 of SARS-CoV Urbani: 0.7
  Binding of serum 37 to looped/cyclic peptides of protein X4 of SARS-CoV Urbani: 0.9
  Binding of serum 62 to linear peptides of protein X4 of SARS-CoV Urbani: 0.7
  Binding of serum 62 to looped/cyclic peptides of protein X4 of SARS-CoV Urbani: 0.9
  Binding of serum London to linear peptides of protein X4 of SARS-CoV Urbani: 0.6
  Binding of serum London to looped/cyclic peptides of protein X4 of SARS-CoV Urbani: 0.3
  Binding of serum SARS-green to linear peptides of protein X4 of SARS-CoV Urbani: 0.7
  Binding of serum SARS-green to looped/cyclic peptides of protein X4 of SARS-CoV Urbani: 0.7
  Binding of serum SARS-yellow to linear peptides of protein X4 of SARS-CoV Urbani: 0.6
  Binding of serum SARS-yellow to looped/cyclic peptides of protein X4 of SARS-CoV Urbani: 0.6
[2]
  Binding of Control Serum Blood-Bank to Looped peptides: 0.9
  Binding of Control serum Blood-bank to linear peptides: 0.7
  Binding of Control serum LUMC to linear peptides: 0.7
  Binding of Control serum LUMC to looped peptides: 0.9
[3]
  Rabbit serum linear peptides: 0.7
  Rabbit serum looped peptides: 0.4

## LGKVLPFHRWHTMVQ
[1]
  Binding of serum 1a to linear peptides of protein X5 of SARS-CoV Urbani: 0.7
  Binding of serum 1a to looped/cyclic peptides of protein X5 of SARS-CoV Urbani: 0.6
  Binding of serum 1b to linear peptides of protein X5 of SARS-CoV Urbani: 0.4
  Binding of serum 1b to looped/cyclic peptides of protein X5 of SARS-CoV Urbani: 0.3
  Binding of serum 2 to linear peptides of protein X5 of SARS-CoV Urbani: 0.6
  Binding of serum 2 to looped/cyclic peptides of protein X5 of SARS-CoV Urbani: 0.2
  Binding of serum 6 to linear peptides of protein X5 of SARS-CoV Urbani: 0.5
  Binding of serum 6 to looped/cyclic peptides of protein X5 of SARS-CoV Urbani: 0.3
  Binding of serum 37 to linear peptides of protein X5 of SARS-CoV Urbani: 0.6
  Binding of serum 37 to looped/cyclic peptides of protein X5 of SARS-CoV Urbani: 0.5
  Binding of serum 62 to linear peptides of protein X5 of SARS-CoV Urbani: 0.6
  Binding of serum 62 to looped/cyclic peptides of protein X5 of SARS-CoV Urbani: 0.3
  Binding of serum London to linear peptides of protein X5 of SARS-CoV Urbani: 0.6
  Binding of serum London to looped/cyclic peptides of protein X5 of SARS-CoV Urbani: 0.2
  Binding of serum SARS-green to linear peptides of protein X5 of SARS-CoV Urbani: 0.4
  Binding of serum SARS-green to looped/cyclic peptides of protein X5 of SARS-CoV Urbani: 0.2
  Binding of serum SARS-yellow to linear peptides of protein X5 of SARS-CoV Urbani: 0.2
  Binding of serum SARS-yellow to looped/cyclic peptides of protein X5 of SARS-CoV Urbani: 0.2
[2]
  Binding of Control Serum Blood-Bank to Looped peptides: 0.4
  Binding of Control serum Blood-bank to linear peptides: 0.8
  Binding of Control serum LUMC to linear peptides: 0.5
  Binding of Control serum LUMC to looped peptides: 0.4
[3]
  Rabbit serum linear peptides: 0.5
  Rabbit serum looped peptides: 0.3

## LHKLLQTLVLKMLHS
[1]
  Binding of serum 1a to linear peptides of protein X2: 0.6
  Binding of serum 1a to looped/cyclic peptides of protein X2 of SARS-CoV Urbani: 0.6
  Binding of serum 1b to linear peptides of protein X2: 0.0
  Binding of serum 1b to looped/cyclic peptides of protein X2 of SARS-CoV Urbani: 0.5
  Binding of serum 2 to linear peptides of protein X2: 0.4
  Binding of serum 2 to looped/cyclic peptides of protein X2 of SARS-CoV Urbani: 0.4
  Binding of serum 6 to linear peptides of protein X2: 0.3
  Binding of serum 6 to looped/cyclic peptides of protein X2 of SARS-CoV Urbani: 0.6
  Binding of serum 37 to linear peptides of protein X2: 0.4
  Binding of serum 37 to looped/cyclic peptides of protein X2 of SARS-CoV Urbani: 0.4
  Binding of serum 62 to linear peptides of protein X2: 0.5
  Binding of serum 62 to looped/cyclic peptides of protein X2 of SARS-CoV Urbani: 0.6
  Binding of serum London to linear peptides of protein X2: 0.4
  Binding of serum London to looped/cyclic peptides of protein X2 of SARS-CoV Urbani: 1.0
  Binding of serum SARS-green to linear peptides of protein X2: 0.6
  Binding of serum SARS-green to looped/cyclic peptides of protein X2 of SARS-CoV Urbani: 0.4
  Binding of serum SARS-yellow to linear peptides of protein X2: 0.3
  Binding of serum SARS-yellow to looped/cyclic peptides of protein X2 of SARS-CoV Urbani: 0.7
[2]
  Binding of Control Serum Blood-Bank to Looped peptides: 0.8
  Binding of Control serum Blood-bank to linear peptides: 0.5
  Binding of Control serum LUMC to linear peptides: 0.3
  Binding of Control serum LUMC to looped peptides: 0.7
[3]
  Binding of a rabbit serum to linear peptides: 0.2
  Binding of a rabbit serum to looped peptides: 0.4

## LHSSSLTSLLKTHRM
[1]
  Binding of serum 1a to linear peptides of protein X2: 0.6
  Binding of serum 1a to looped/cyclic peptides of protein X2 of SARS-CoV Urbani: 0.4
  Binding of serum 1b to linear peptides of protein X2: 0.5
  Binding of serum 1b to looped/cyclic peptides of protein X2 of SARS-CoV Urbani: 0.4
  Binding of serum 2 to linear peptides of protein X2: 0.4
  Binding of serum 2 to looped/cyclic peptides of protein X2 of SARS-CoV Urbani: 0.3
  Binding of serum 6 to linear peptides of protein X2: 0.5
  Binding of serum 6 to looped/cyclic peptides of protein X2 of SARS-CoV Urbani: 0.2
  Binding of serum 37 to linear peptides of protein X2: 0.5
  Binding of serum 37 to looped/cyclic peptides of protein X2 of SARS-CoV Urbani: 0.3
  Binding of serum 62 to linear peptides of protein X2: 0.5
  Binding of serum 62 to looped/cyclic peptides of protein X2 of SARS-CoV Urbani: 0.4
  Binding of serum London to linear peptides of protein X2: 0.6
  Binding of serum London to looped/cyclic peptides of protein X2 of SARS-CoV Urbani: 0.2
  Binding of serum SARS-green to linear peptides of protein X2: 0.6
  Binding of serum SARS-green to looped/cyclic peptides of protein X2 of SARS-CoV Urbani: 0.3
  Binding of serum SARS-yellow to linear peptides of protein X2: 0.6
  Binding of serum SARS-yellow to looped/cyclic peptides of protein X2 of SARS-CoV Urbani: 0.3
[2]
  Binding of Control Serum Blood-Bank to Looped peptides: 0.4
  Binding of Control serum Blood-bank to linear peptides: 0.7
  Binding of Control serum LUMC to linear peptides: 0.4
  Binding of Control serum LUMC to looped peptides: 0.4
[3]
  Binding of a rabbit serum to linear peptides: 0.2
  Binding of a rabbit serum to looped peptides: 0.4

## LIVFTSCELYHYQEC
[1]
  Binding of serum 1a to linear peptides of protein X4 of SARS-CoV Urbani: 0.8
  Binding of serum 1a to looped/cyclic peptides of protein X4 of SARS-CoV Urbani: 0.8
  Binding of serum 1b to linear peptides of protein X4 of SARS-CoV Urbani: 0.8
  Binding of serum 1b to looped/cyclic peptides of protein X4 of SARS-CoV Urbani: 0.6
  Binding of serum 2 to linear peptides of protein X4 of SARS-CoV Urbani: 0.6
  Binding of serum 2 to looped/cyclic peptides of protein X4 of SARS-CoV Urbani: 0.6
  Binding of serum 6 to linear peptides of protein X4 of SARS-CoV Urbani: 0.6
  Binding of serum 6 to looped/cyclic peptides of protein X4 of SARS-CoV Urbani: 0.5
  Binding of serum 37 to linear peptides of protein X4 of SARS-CoV Urbani: 1.0
  Binding of serum 37 to looped/cyclic peptides of protein X4 of SARS-CoV Urbani: 0.7
  Binding of serum 62 to linear peptides of protein X4 of SARS-CoV Urbani: 1.0
  Binding of serum 62 to looped/cyclic peptides of protein X4 of SARS-CoV Urbani: 0.7
  Binding of serum London to linear peptides of protein X4 of SARS-CoV Urbani: 0.8
  Binding of serum London to looped/cyclic peptides of protein X4 of SARS-CoV Urbani: 0.3
  Binding of serum SARS-green to linear peptides of protein X4 of SARS-CoV Urbani: 1.1
  Binding of serum SARS-green to looped/cyclic peptides of protein X4 of SARS-CoV Urbani: 0.5
  Binding of serum SARS-yellow to linear peptides of protein X4 of SARS-CoV Urbani: 0.6
  Binding of serum SARS-yellow to looped/cyclic peptides of protein X4 of SARS-CoV Urbani: 0.6
[2]
  Binding of Control Serum Blood-Bank to Looped peptides: 0.7
  Binding of Control serum Blood-bank to linear peptides: 0.6
  Binding of Control serum LUMC to linear peptides: 0.7
  Binding of Control serum LUMC to looped peptides: 0.8
[3]
  Rabbit serum linear peptides: 0.5
  Rabbit serum looped peptides: 0.5
